Experimental data: patent US6727084B1, “Cold-active beta-galactosidase, the process for its preparation and the use thereof” (Universite de Liege, priority 1999, dated 2004)
“Also recorded” adds a separate entry of the source.

Key:
[1] = target: T1, Pseudoalteromonas haloplanktis LMG P-19143 cold-active β-galactosidase (lac Z), native, SEQ ID NO: 2 (Pseudoalteromonas haloplanktis, UniProt P81650); assay: kinetics of LMG P-19143 β-galactosidase with lactose as substrate (galactose dehydrogenase assay); format: biochemical; design: ORF of 1038 residues; settings: 25° C.
T1 sequence (P81650 whole entry): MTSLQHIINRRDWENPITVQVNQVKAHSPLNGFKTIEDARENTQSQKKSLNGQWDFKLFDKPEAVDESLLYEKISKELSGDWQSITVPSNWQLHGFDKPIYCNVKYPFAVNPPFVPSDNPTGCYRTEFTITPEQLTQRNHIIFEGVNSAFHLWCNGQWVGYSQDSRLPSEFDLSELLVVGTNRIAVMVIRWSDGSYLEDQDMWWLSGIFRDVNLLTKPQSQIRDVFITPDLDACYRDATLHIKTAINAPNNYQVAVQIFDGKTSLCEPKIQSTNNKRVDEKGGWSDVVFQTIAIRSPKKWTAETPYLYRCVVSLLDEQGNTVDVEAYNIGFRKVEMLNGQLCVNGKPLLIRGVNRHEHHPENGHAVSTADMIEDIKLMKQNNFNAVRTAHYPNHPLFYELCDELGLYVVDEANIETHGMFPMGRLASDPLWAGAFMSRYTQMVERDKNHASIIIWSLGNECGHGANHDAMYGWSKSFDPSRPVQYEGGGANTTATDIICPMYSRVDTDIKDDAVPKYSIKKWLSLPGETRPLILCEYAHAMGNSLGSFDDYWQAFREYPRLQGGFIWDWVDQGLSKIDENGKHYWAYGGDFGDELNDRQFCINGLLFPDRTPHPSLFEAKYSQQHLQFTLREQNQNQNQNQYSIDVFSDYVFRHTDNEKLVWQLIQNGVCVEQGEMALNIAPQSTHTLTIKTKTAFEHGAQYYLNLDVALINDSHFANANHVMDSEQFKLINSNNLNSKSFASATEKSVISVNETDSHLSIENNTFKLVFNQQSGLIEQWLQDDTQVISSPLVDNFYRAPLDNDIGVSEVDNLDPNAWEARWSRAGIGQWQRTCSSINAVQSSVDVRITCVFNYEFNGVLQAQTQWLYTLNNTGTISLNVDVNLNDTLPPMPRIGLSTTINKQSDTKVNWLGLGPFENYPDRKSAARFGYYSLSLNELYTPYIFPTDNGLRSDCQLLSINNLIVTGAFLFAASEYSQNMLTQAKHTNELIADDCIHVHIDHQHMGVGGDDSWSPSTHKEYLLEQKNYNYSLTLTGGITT
From the text: (§1) The definition of enzyme activity units can be defined according to the substrate used with lactose as a substrate, the unit of activity is defined as the amount of enzyme which releases one micro-mole glucose in one minute under standard reaction conditions (temperature, pH). Another commonly used substrate is ortho-nitrophenyl-β-D galactopyranoside (ONPG) and in this case, the unit of activity is defined as the amount of enzyme which hydrolyses one micro-mole of ONPG in one minute under standard reaction conditions.
Km was also determined at 25° C. with lactose (1 mM to 50 mM) as a substrate.

[2] = target: T1, Pseudoalteromonas haloplanktis LMG P-19143 cold-active β-galactosidase (lac Z), native, SEQ ID NO: 2; assay: biochemical; settings: pH 7.5, read-out: residual activity after EDTA treatment (% of initial activity)
Description: The assay of β-galactosidase was carried out using 3 mM ONPG (ortho-nitrophenyl-β-galactopyranoside) as a chromogenic substrate in 100 mM sodium phosphate buffer, pH 7,3, 1 mM MgCl2, 100 mM 2-mercaptoethanol (Sigma). Activities toward the chromogenic substrate were recorded in a thermostated Uvicon 860 Spectrophotometer (Kontron) at 25° C. and calculated on the basis of an extinction coefficient for o-nitrophenol of 3.5 mM^−1 cm^−1 at 410 nm (Miller, J. H. and Reznikoff, W. S., Eds. 1978; The Operon. Cold Spring Harbor Laboratory Press, N.Y.). Assays using lactose as a substrate were carried out using various concentrations of lactose. The reaction was stopped by boiling the sample in a water bath for 3 minutes. The galactose dehydrogenase assay was used to measure the amount of galactose released by the enzyme (Schachter H. 1975, Enzymatic microassays for D-Mannose, D-Glucose, D-Galactose, L-Fucose, and D-Glucosamine. Methods Enzymol., 41: 3-10.) The specific activity of β-galactosidase is defined as micro-moles of galactose released per minute per mg of protein.
To determine the effect of divalent metal ions on activity, assays were performed in 100 mM phosphate buffer at 25° C. and pH 7.5. The enzyme preparation was treated with 5 mM EDTA to complex metal ions.

[3] = target: T1, Pseudoalteromonas haloplanktis LMG P-19143 cold-active β-galactosidase (lac Z), native, SEQ ID NO: 2; assay: effect of 2-mercaptoethanol on LMG P-19143 β-galactosidase activity; format: biochemical; design: ORF of 1038 residues; settings: 80 mM 2-mercaptoethanol (optimal activity), 100 mM phosphate buffer; ONPG
Description: (§2) The effect of K+ was determined by assaying activity in 100 mM phosphate buffer containing KCl at concentrations from 0 to 100 mM. LMG P-19143 β-galactosidase optimal activity was recorded using a KCl concentration of 80 mM whereas the E. coli β-galactosidase optimal activity was recorded at a KCl concentration of 40 mM. At theses concentrations, KCl stimulated the activity of both enzymes by a factor of 1.5.
(§3) Optimal activity of the LMG P-19143 enzyme was recorded at 80 mM 2-mercaptoethanol and that of E. coli enzyme at 40 mM 2-mercaptoethanol. At these concentrations, the reducing agent stimulated LMG P-19143 enzyme activity twofold and E. coli enzyme by a factor of 1.5.

[4] = target: T2, E. coli β-galactosidase (Sigma G2513) (Escherichia coli, UniProt P00722); assay: biochemical; settings: read-out: stimulation of enzyme activity by 2-mercaptoethanol (factor)
T2 sequence (P00722 whole entry): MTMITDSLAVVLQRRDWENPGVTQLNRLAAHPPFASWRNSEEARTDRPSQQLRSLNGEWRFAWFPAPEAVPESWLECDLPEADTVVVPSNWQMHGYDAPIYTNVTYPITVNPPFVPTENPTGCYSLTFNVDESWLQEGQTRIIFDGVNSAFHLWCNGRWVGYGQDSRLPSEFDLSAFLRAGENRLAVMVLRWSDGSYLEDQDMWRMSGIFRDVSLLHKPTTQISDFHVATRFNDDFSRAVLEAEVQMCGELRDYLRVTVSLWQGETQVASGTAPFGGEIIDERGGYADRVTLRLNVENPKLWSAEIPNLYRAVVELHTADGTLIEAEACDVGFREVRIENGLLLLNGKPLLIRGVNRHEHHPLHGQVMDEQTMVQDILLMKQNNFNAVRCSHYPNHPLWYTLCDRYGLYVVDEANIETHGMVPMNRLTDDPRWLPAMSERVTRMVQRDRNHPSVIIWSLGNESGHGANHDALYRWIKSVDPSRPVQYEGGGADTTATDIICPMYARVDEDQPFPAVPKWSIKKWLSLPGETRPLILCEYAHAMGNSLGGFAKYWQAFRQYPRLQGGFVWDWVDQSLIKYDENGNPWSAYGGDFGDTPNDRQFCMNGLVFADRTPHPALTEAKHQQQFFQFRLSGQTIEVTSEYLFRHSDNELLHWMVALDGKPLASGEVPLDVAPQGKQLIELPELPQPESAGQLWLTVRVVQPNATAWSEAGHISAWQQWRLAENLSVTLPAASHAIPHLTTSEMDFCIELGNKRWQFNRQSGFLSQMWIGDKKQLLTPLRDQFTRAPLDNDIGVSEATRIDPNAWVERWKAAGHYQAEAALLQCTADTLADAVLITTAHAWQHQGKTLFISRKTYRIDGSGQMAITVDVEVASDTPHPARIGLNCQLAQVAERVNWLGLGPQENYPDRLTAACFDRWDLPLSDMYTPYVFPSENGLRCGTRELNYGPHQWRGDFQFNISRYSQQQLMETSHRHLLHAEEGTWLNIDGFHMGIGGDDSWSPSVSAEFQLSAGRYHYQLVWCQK
Description: (§4) The β-galactosidase from Escherichia coli used as a control was from Sigma (G2513).
as §2, §3

[5] = target: T1, Pseudoalteromonas haloplanktis LMG P-19143 cold-active β-galactosidase (lac Z), native, SEQ ID NO: 2; assay: kinetics of LMG P-19143 β-galactosidase with ONPG as substrate; format: biochemical; design: ORF of 1038 residues
From the text: as §1
(§5) The activation energy (Ea) was determined from the slope (−Ea/R) of Arrhenius plot and the thermodynamic activation parameters of the reaction were calculated according to the following equations: […]
(§6) At 8° C., the kcat (s^−1) of the LMG P-19143 enzyme is twice as high as that of E. coli enzyme. Theses curves have been used to construct Arrhenius plots and to calculate the activation energy parameters of the reaction as shown in table 2.
(§7) Assays were performed with ONPG as a substrate at various concentrations and at different temperatures to determine Km and Vmax values.

[6] = target: T2, E. coli β-galactosidase (Sigma G2513); assay: kinetics of E. coli β-galactosidase (control) with ONPG as substrate; format: biochemical
From the text: as §1, §4, §5, §6, §7

Which results are given for `OC[C@H]1O[C@@H](O[C@H]2[C@H](O)[C@@H](O)C(O)O[C@@H]2CO)[C@H](O)[C@@H](O)[C@H]1O` (stereo partly drawn) [lactose]?
km relative to E. coli enzyme [1]: five times lower; physiological efficiency (kcat/km) relative to E. coli β-galactosidase [1]: eighty times as high; also recorded: ninety times higher; turnover (kcat) relative to E. coli enzyme [1]: fifteen times

How did the remaining activity at 5000 µM [2] turn out when `O=C(O)CN(CCN(CC(=O)O)CC(=O)O)CC(=O)O` [EDTA] was run?
Its remaining activity at 5000 µM is < 10%.

How did the “stimulation of enzyme activity by 2-mercaptoethanol” value [3] turn out when `OCCS` [2-mercaptoethanol] was run?
The value was “twofold”.

What about the fold induction at 40000 µM [4] of the same compound?
Its fold induction at 40000 µM is 1.5.

Which results are given for `O=[N+]([O-])c1ccccc1O[C@@H]1O[C@H](CO)[C@H](O)[C@H](O)[C@H]1O` [ONPG, ortho-nitrophenyl-β-D galactopyranoside]?
kcat relative to that of E. coli enzyme ([5]; ONPG as substrate, 8° C.): twice as high; apparent Km (compared with E. coli enzyme) ([5]; ONPG as substrate, 10° C.): nearly the same; kcat ([5]; ONPG as substrate, 20° C.): 408 s⁻¹; km (comparison of both enzymes) ([5]; ONPG as substrate, at low temperature): comparable; physiological efficiency (kcat/km) relative to E. coli enzyme ([5]; ONPG as substrate, FIG. 6): about three times higher; turnover (kcat) relative to E. coli enzyme ([5]; ONPG, temperature range of 0-40° C.): higher; apparent Km (compared with LMG P-19143 enzyme) ([6]; 10° C.): nearly the same; kcat ([6]; 20° C.): 199 s⁻¹; km (comparison of both enzymes) ([6]; at low temperature): comparable
